Test results from patent US20180279622A1, “1-AMINO-1-CYCLOPROPANECARBOXYLIC ACID FORMULATIONS” (Valent BioSciences LLC, priority 2017, published 2018).
Where two headings read alike, the source gives them in different places. Values belong to the molecule of their own block, whether it stands above or below them.

Columns and labels:
[1] = Color change inhibition (Gardner Color Scale); type: physicochemical; settings: for Color (Gardner Scale): 54° C. for two weeks
Method: Specifically, the color changed from clear or a 1 on the Gardner Scale to a yellow color of 4-5 on the Gardener Scale. See ASTM D1544-04(2010), Standard Test Method for Color of Transparent Liquids (Gardner Color Scale), ASTM International, West Conshohocken, Pa., 2010, www.astm.org for explanation of the Gardner scale. To overcome this problem several methods were tested including lowering the pH to 4.0, packaging under nitrogen gas blanket, adding specific salts, chelating agents, antioxidants or preservatives.

[2] = ACC precipitation and crystallization tests; type: physicochemical
Method: To overcome this problem, salts were added individually to 10% w/w ACC aqueous solutions. These solutions were stored at room temperature and analyzed for precipitate formation.

[3] = ACC precipitation and crystallization tests; type: physicochemical; remark: listed apart in the source
[4] = test system: Gala apple trees; assay: Apple thinning; type: in vivo; settings: foliar spray at 18 to 20 mm mean fruit diameter
Method: The formula from Example 8, above, was diluted to prepare 200 and 400 ppm ACC solutions. These solutions were applied as a foliar spray to Gala apple trees grown at three separate locations when the mean fruit diameter was from 18 to 20 millimeters. […] Thinning activity is expressed as the number of fruit set per 100 flower clusters after the completion of natural fruit drop.

[5] = test system: cotton cotyledons; assay: Cotton cotyledon bioefficacy assay (headspace ethylene evolution); type: in vivo
Method: The solutions were amended with 0.05% (v/v) of a non-ionic surfactant and spray applied to the adaxial surface of 10-day old cotton cotyledons using a track sprayer. In addition to ACC-containing solutions, appropriate controls were tested. Two days (48 hours) after spray application, the cotyledons from each plant were removed, weighed and incubated in sealed glass vials for 4 to 7 hours. Headspace ethylene evolution by the cotyledons was measured by gas chromatography using standard methods. The assay from Example 5, above, was repeated with a formulation containing 0.2% w/w EDTA.

[6] = salt added to 10% w/w ACC aqueous solution, stored at room temperature
[7] = salt added to 10% w/w ACC aqueous solution, 5° C. overnight
[8] = additive 0.2 % w/w in 10% ACC, 10% calcium chloride, Kathon CG/ICP formulation

Compound: Cl [2N hydrochloric acid, hydrochloric acid]
Color (Gardner Scale) ([1]; additive 0.6-0.9 % w/w): 3-4

Precipitation (room temperature) [2, 6]: YES | Precipitation (5° C.) [3, 7]: YES
Compound: CC(O)C(=O)[O-].CC(O)C(=O)[O-].O.O.O.O.O.[Ca+2] (stereo not drawn) [(CH3CH(OH)COO)2Ca•5H2O]

Precipitation ([2]; 10% w/w ACC free acid in water, no salt, room temperature and/or 5° C.): precipitate
Compound: NC1(C(=O)O)CC1 [ACC, 1-amino-1-cyclopropanecarboxylic acid]
Thinning Activity ([4]; Geneva, NY, 200 ppm ACC): 47 fruit set per 100 flower clusters | Thinning Activity ([4]; Geneva, NY, 400 ppm ACC): 37 fruit set per 100 flower clusters | Thinning Activity ([4]; Monitor, WA, 200 ppm ACC): 32 fruit set per 100 flower clusters | Thinning Activity ([4]; Monitor, WA, 400 ppm ACC): 10 fruit set per 100 flower clusters | Thinning Activity ([4]; Parkdale, OR, 200 ppm ACC): 267 fruit set per 100 flower clusters | Thinning Activity ([4]; Parkdale, OR, 400 ppm ACC): 194 fruit set per 100 flower clusters | Ethylene ([5]; ACC 500 ppm, molar ratio 1:0, 48 hours after spray): 39.80 nL/gFW/hr | Ethylene ([5]; Example 6, ACC 500 ppm): 27.6 nL/g FW/hr

Compound: O=[N+]([O-])[O-].[Ag+] [AgNO3]
Precipitation (room temperature) [2, 6]: YES | Precipitation (5° C.) [3, 7]: YES

Precipitation (room temperature) [2, 6]: YES | Precipitation (5° C.) [3, 7]: YES
Compound: O=S(=O)([O-])[O-].O=S(=O)([O-])[O-].O=S(=O)([O-])[O-].[Al+3].[Al+3] [Al2(SO4)3]

Color (Gardner Scale) [1, 8]: >18
Compound: O=C1O[C@H]([C@@H](O)CO)C(O)=C1O [Ascorbic acid]

Compound: [Ba+2].[Cl-].[Cl-] [BaCl2]
Precipitation (5° C.) [3, 7]: YES

Compound: O=[N+]([O-])[O-].O=[N+]([O-])[O-].[Ca+2] [Ca(NO3)2]
Precipitation (5° C.) [3, 7]: YES

Compound: [Ca+2].[Cl-].[Cl-] [CaCl2, calcium chloride]
Ethylene ([5]; CaCl2 550 ppm, molar ratio ACC:CaCl2 0:1, 48 hours after spray): 1.49 nL/gFW/hr

Precipitation (room temperature) [2, 6]: YES | Precipitation (5° C.) [3, 7]: YES
Compound: O=S(=O)([O-])[O-].[Ca+2] [CaSO4]

Compound: O=C(O)CC(O)(CC(=O)O)C(=O)O [Citric acid]
Color (Gardner Scale) [1, 8]: 4-5

Gardner scale score ([1]; EDTA at 0.1% or 0.2% w/w, 2 weeks at 54° C.): ≤ 2 | Gardner scale score ([1]; EDTA at 0.1% or 0.2% w/w, 2 weeks plus 6 additional weeks at 54° C.): 1-2 | Color maintenance versus pH ([1]; EDTA at 0.1% or 0.2% w/w, pH 4.0): best results | Time clear color maintained ([1]; EDTA at 0.1% or 0.2% w/w, pH 5.2, 54° C.): at least 4 weeks | Color (Gardner Scale) ([1]; additive 0.1 % w/w): 1-2 | Color (Gardner Scale) ([1]; additive 0.5 % w/w): 1-2
Compound: O=C(O)CN(CCN(CC(=O)O)CC(=O)O)CC(=O)O [EDTA, ethylenediaminetetraacetic acid]

Color (Gardner Scale) [1, 8]: 4-5
Compound: O=C(O)/C=C/C(=O)O [Fumaric acid]

Compound: O=C([O-])CC(O)(CC(=O)[O-])C(=O)[O-].[Fe+3] [Iron(III) citrate hydrate]
Precipitation (room temperature) [2, 6]: YES | Precipitation (5° C.) [3, 7]: YES

Precipitation (room temperature) [2, 6]: YES | Precipitation (5° C.) [3, 7]: YES
Compound: [Cl-].[K+] [KCl]

Compound: O=[N+]([O-])[O-].[K+] [KNO3]
Precipitation (room temperature) [2, 6]: YES | Precipitation (5° C.) [3, 7]: YES

Compound: O=[N+]([O-])[O-].O=[N+]([O-])[O-].[Mg+2] [Mg(NO3)2]
Precipitation (5° C.) [3, 7]: YES

Precipitation (5° C.) [3, 7]: YES
Compound: [Cl-].[Cl-].[Mg+2] [MgCl2]

Compound: Cl.N [NH4Cl]
Precipitation (room temperature) [2, 6]: YES | Precipitation (5° C.) [3, 7]: YES

Compound: N.O=[N+]([O-])O [NH4NO3]
Precipitation (room temperature) [2]: YES | Precipitation (5° C.) [3]: YES

Compound: CC(=O)[O-].[Na+] [Sodium acetate]
Color (Gardner Scale) [1, 8]: 4-5

Compound: O=C([O-])CC(O)(CC(=O)[O-])C(=O)[O-].[Na+].[Na+].[Na+] [Sodium citrate]
Color (Gardner Scale) [1, 8]: 4-5

Compound: NC(N)=O [Urea]
Color (Gardner Scale) [1, 8]: 5-6
